Reference: patent US5171748A, “Benz[4,5]imidazole-containing angiotensin antagonists” (Imperial Chemical Industries plc, priority 1989, dated 1992)
pIC50: −log10 of the molar value.

Assays:
[1] = target: T1, AII-induced contractions of isolated rabbit aorta (Oryctolagus cuniculus, UniProt P34976); assay: Test B: antagonism of AII-induced contractions of isolated rabbit aorta; format: cell-based; conditions: 37° C., read-out: pA2 (converted)
T1 construct: isolated rabbit aorta, maintained in a physiological salt solution; from tissue; host or cells: isolated rabbit aorta
T1 sequence (P34976 1-359): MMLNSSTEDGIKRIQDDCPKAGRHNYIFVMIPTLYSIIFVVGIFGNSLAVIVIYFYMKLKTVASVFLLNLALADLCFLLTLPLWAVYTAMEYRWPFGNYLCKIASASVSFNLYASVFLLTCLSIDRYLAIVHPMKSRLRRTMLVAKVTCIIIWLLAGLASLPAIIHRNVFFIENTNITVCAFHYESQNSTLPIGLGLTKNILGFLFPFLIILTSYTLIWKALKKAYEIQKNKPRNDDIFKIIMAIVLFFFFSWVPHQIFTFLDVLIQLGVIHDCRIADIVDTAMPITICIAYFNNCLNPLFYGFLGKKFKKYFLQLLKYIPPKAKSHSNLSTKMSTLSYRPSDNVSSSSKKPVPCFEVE
Method: Test B: This in vitro test involves the measurement of the antagonistic effects of the test compound against AII-induced contractions of isolated rabbit aorta, maintained in a physiological salt solution at 37° C. In order to ensure that the effect of the compound is specific to antagonism of AII, the effect of the test compound on noradrenaline-induced contractions may also be determined in the same preparation.

[2] = target: T2, AII receptors (cell surface membrane fraction, guinea pig adrenal gland) (Cavia porcellus, UniProt Q9WV26); assay: Test A: displacement of radiolabelled AII binding to guinea pig adrenal membrane fraction; conditions: read-out: IC50 (concentration for 50% displacement of radiolabelled AII binding)
T2 construct: from tissue; host or cells: guinea pig adrenal gland, cell surface membrane fraction
T2 sequence (Q9WV26 1-359): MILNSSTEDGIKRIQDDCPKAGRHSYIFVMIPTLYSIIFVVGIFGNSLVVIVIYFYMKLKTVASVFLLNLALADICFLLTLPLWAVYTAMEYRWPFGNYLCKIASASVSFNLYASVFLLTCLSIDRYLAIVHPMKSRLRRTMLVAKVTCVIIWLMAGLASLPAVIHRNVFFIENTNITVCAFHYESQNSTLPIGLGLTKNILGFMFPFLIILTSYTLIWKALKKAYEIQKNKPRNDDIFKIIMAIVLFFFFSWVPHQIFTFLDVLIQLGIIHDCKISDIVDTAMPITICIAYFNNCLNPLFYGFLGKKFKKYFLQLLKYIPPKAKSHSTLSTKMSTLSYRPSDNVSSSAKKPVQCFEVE
Method: Test A: This in vitro procedure involves the incubation of the test compound initially at a concentration of 100 micromolar (or less) in a buffered mixture containing fixed concentrations of radiolabelled AII and a cell surface membrane fraction prepared from a suitable angiotensin target tissue. In this test, the source of cell surface membranes is the guinea pig adrenal gland which is well known to respond to AII. Interaction of the radiolabelled AII with its receptors (assessed as radiolabel bound to the particulate membrane fraction following removal of unbound radiolabel by a rapid filtration procedure such as is standard in such studies) is antagonized by compounds which also bind to the membrane receptor sites and the degree of antagonism (observed in the test as displacement of membrane-bound radioactivity) is determined readily by comparing the receptor-bound radioactivity in the presence of the test compound at the specified test concentration with a control value determined in the absence of the test compound. Using this procedure compounds showing at least 50% displacement of radiolabelled AII binding at a concentration of 10^-4 M are retested at lower concentrations to determine their potency. […]

[3] = system: angiotensin II-induced pressor responses; assay: Test C: antagonism of angiotensin II-induced pressor responses in terminally-anaesthetised or conscious rats; format: in vivo; conditions: Rattus norvegicus, parenteral administration
Method: Test C: This in vivo test involves using terminally-anaesthetised or conscious rats in which an arterial catheter has been implanted under anaesthesia for the measurement of changes in blood pressure. The AII antagonistic effects of the test compound following oral or parenteral administration, are assessed against angiotensin II-induced pressor responses. To ensure that the effect is specific the effect of the test compound on vasopressin-induced pressor responses may also be determined in the same preparation.

Kb [1]: 25.1 nM
pIC50 [2]: 7.00
Compound: CCCCc1nc2ccccc2n1Cc1ccc(C(=O)NS(=O)(=O)c2ccccc2)cc1 [Example 3, 4-[(2-butyl-1H-benzimidazol-1-yl)methyl]-N-phenylsulphonylbenzamide]
ED50 [3]: 3 mg/kg
